Source: US20070166774A1, “Functional immunoassay” (priority 2006, published 2007)

Tested on: antibody (anti-gadolinium-DTPA)
Assay: Immunoassay of gadolinium DTPA, standard curve (HRP-conjugate, microtiter plate)
Assay type: binding, rabbit
Procedure: White New Zealand rabbits were injected subcutaneously with 1 mg of antigen (1 mg/ml) in multiple sites on the rabbit's back according to the schedule in Table 2. The initial injection was prepared in Freund's complete adjuvant. All other injections were prepared in Freund's incomplete adjuvant. Coating polystyrene microtiter plates. Microtiter strips were coated with 200 ul of 10 ug/ml antibody solution diluted in 0.1 M carbonate buffer pH 9 and incubated overnight at room temperature. The coated plates were blocked with a phosphate buffered saline, pH 7.4 solution containing bovine serum (5 mg/ml) and dextrose 20 mg/ml) for 30 minutes, blotted dry and stored at 4° C. until used. All plates were used within 5 days of preparation. In a typical preparation the coating antibody was a goat anti-rabbit serum. HRP-conjugates. HRP-conjugates prepared as described in Example 11 were diluted between 1 to 100 and 1 to 1000 into phosphate buffered saline, pH 7.4 buffer containing bovine albumin (1 mg/ml). General immunoassay protocols for analytes were performed as follows. 100 μl of standard or serum sample was pipeted into appropriate wells in duplicate followed by 100 μl of antibody. To each well was added 200 μl of HRP-conjugate. After a 60 minute incubation at room temperature the wells were aspirated and washed three times with phosphate buffered saline, pH 7.4 containing (0.1% serum albumin and 0.01% Tween 20. To each well was added 200 ul of substrate solution and incubated for 30 minutes at room temperature. The development of color was stopped by the addition of 50 μl of stop solution. The wells were read using a microtiter plate reader. Standard curve data for gadolinium DTPA is shown in Table 3. Standard values were chosen specifically for this assay as shown in Table 3.

O=C([O-])CN(CCN(CC(=O)[O-])CC(=O)[O-])CCN(CC(=O)[O-])CC(=O)[O-].[Gd+3] [Gadolinium DTPA, gadolinium DTPA]
Optical density, 450 nm (Gadolinium DTPA concentration 1 × 10^−2 M): 0.29 | Optical density, 450 nm (Gadolinium DTPA concentration 1 × 10^−3 M): 0.42 | Optical density, 450 nm (Gadolinium DTPA concentration 1 × 10^−4 M): 0.48 | Optical density, 450 nm (Gadolinium DTPA concentration 1 × 10^−5 M): 0.57 | Optical density, 450 nm (Gadolinium DTPA concentration 1 × 10^−6 M): 0.58 | Optical density, 450 nm (Gadolinium DTPA concentration 5 × 10^−5 M): 0.55 | Optical density, 450 nm (Gadolinium DTPA concentration 5 × 10^−6 M): 0.61
